{"source": "patent US20230279072A1", "about": "“REGULATORY T CELL EPITOPES” (EpiVax Inc., priority 2020, published 2023)", "key": {"PBMCs": {"tested_on": "PBMCs", "format": "cell-based, human", "experimental": "For the T reg assays, PBMCs were thawed according standard procedure, labeled with carboxyfluorescein succinimidyl ester (CFSE), and rested overnight in 96 well culture plate prior to use in in vitro assays. To evaluate the dose response of FV621 on the viability, cells were incubated with FV621 for 2, 3, 5 and 7 days in culture and live cells evaluated by flow cytometry using a live-dead viability dye and by counting in a cellometer (Nexcelom) using trypan blue exclusion. […]\nTo rule out the possibility that the effect of FV621 was related to toxic effects of the peptide, which might simulate a suppressive effect in vitro, we evaluated the viability of cells in culture with FV621 using two different methods. Cells were cultured in the presence of FV621 in a 96 well plate for 2, 3, 5 and 7 days after which cells were collected and stained with live-dead viability dye and analyzed by flow cytometry (data not shown) and by trypan blue exclusion and counting with a cellometer (Nexcelom). The absolute number of live cells that was counted at days 2, 3, 5 and 7 after stimulation with different doses of FV621 Tregitope was similar by flow cytometry."}, "[1]": {"tested_on": "HLA-DRB1*0101, *0301, *0401, *0701, *1101, *1301 and *1501 alleles", "test": "In vitro HLA DRB1 binding assay, panel of seven alleles", "parameters": "species or system human", "conditions": "for breadth of binding to HLA DRB1 alleles: seven alleles", "experimental": "The six FV peptides were tested for in vitro binding to HLA-DRB1*0101, *0301, *0401, *0701, *1101, *1301 and *1501 alleles."}, "[2]": {"tested_on": "CD4+ T cells in PBMCs from healthy donors", "test": "Tetanus Toxoid Bystander Suppression Assay (TTBSA)", "format": "cell-based, human", "conditions": "for inhibition of the CD4+ T memory response / T effector proliferation in the TTBSA: PBMC from three HLA-diverse donors"}, "[3]": {"tested_on": "panel of five common Class II HLA alleles: HLA-DRB1*0101, HLA-DRB1*0301, HLA-DRB1*0701, HLA-DRB1*1101, and HLA-DRB1*1501", "test": "Soluble HLA competition binding assay, panel of five alleles", "parameters": "species or system human", "experimental": "HLA Binding Assay. Binding activity was analyzed atEpiVax (Providence, R.I.). The binding assay used (Steere A C et al., (2006), J Exp Med, 2003(4):961-71) yielded an indirect measure of peptide-MHC affinity. Soluble HLA molecules were loaded onto a 96-well plate with the unlabeled experimental Tregitopes and labeled control peptide. Once the binding mixture reached steady equilibrium (at 24 hours), the HLA-Tregitope complexes were captured on an ELISA plate coated with anti-human DR antibody and detected with a Europium-linked probe for the label (PerkinElmer, Waltham, Mass.). Time-resolved fluorescence measuring bound labeled control peptide is assessed by a SpectraMax® M5 unit (Spectramax, Radnor, Pa.). Binding of experimental Tregitopes was expressed as the percent inhibition of the labeled control peptide (experimental fluorescence/control fluorescence multiplied by 100). […]\nCD4+ effector memory T cells contained within PBMC cell populations can be induced to proliferate in response to stimulation with known T cell epitopes. […] Binding of experimental Tregitopes is expressed as the percent inhibition of the labeled control peptide (experimental fluorescence/control fluorescence multiplied by 100). […]"}, "[4]": {"tested_on": "CD4+ effector memory T cells", "test": "Suppression of Tetanus Toxoid stimulated CD4+ effector T cells in PBMC", "format": "cell-based, human", "parameters": "CD4+ T cell activation reduced by: dose or concentration left out as unconfirmed", "experimental": "Previously harvested and frozen PBMC were thawed and suspended in conditioned chRPMI (3.3×10^6 cells/mL) by conventional means. Cells were stained with CFSE (Cat #: 65-0850-84, Affymetrix, Santa Clara, Calif.) and plated at 300,000 cells per well. Plates were incubated overnight (37° C. in 5% CO2). […] Previous titration experiments performed at EpiVax (EpiVax, Providence, R.I.) have established that stimulation with 0.5 μg/ml Tetanus Toxoid (TT) (Astarte Biologics, Bothell, Wash.) elicits a measurable CD4+ effector memory T cells response in PBMC drawn from healthy control donors (Rhode Island Blood Center, Providence, R.I.). Tetanus Toxoid stock (100 μg/mL) (Astarte Biologics, Bothell, Wash.) was diluted in conditioned chRPMI yielding a working concentration of 1 ug/mL. […] All plates were then incubated for six additional days. On assay day five, 100 μL of supernatant was removed from each well and replaced with freshly conditioned chRPMI.\nOn assay day seven, cells were removed from incubation. Cells were labeled for live/dead discrimination, for surface markers CD127, CCR7, CD4, CD45RA, and CD25 and for intracellular FoxP3. Stained cells were further prepared for FACS analysis by conventional means. Cells were first gated to eliminate aggregates and dead cells. Live cells were gated for CD4 T cells and all subsequent analysis was done on this population. The activated Teffector population was identified as the CD4+/CD25-high/FoxP3-intermediate (CD4+/CD25^1/FoxP3int) (FIG. 8A).\nProliferation of CD4+/CD25-high (CD4^+/CD25^hi) T cells was estimated from the dilution of the CFSE stain (Cat #: 65-0850-84, Affymetrix, Santa Clara, Calif.) and % proliferation determined by the CFSE-low (CFSEL^lo) population (FIG. 8B)."}}, "note": "Entries after “also recorded” stand apart in the source; their conditions may differ."}
{"molecule": "CC[C@H](C)[C@H](NC(C)=O)C(=O)N[C@@H](CC(C)C)C(=O)N[C@H](C(=O)N[C@H](C(=O)N[C@@H](Cc1c[nH]cn1)C(=O)N[C@@H](Cc1ccccc1)C(=O)N[C@H](C(=O)NCC(=O)N[C@@H](Cc1c[nH]cn1)C(=O)N[C@@H](CO)C(=O)N[C@@H](Cc1ccccc1)C(=O)N[C@H](C(=O)N[C@@H](Cc1ccc(O)cc1)C(=O)NCC(=O)N[C@@H](CCCCN)C(N)=O)[C@@H](C)CC)[C@@H](C)O)[C@@H](C)CC)[C@@H](C)O", "note": "[SEQ ID NO: 1]", "values": [{"measurement": "absolute number of live cells by flow cytometry", "setting": "PBMCs; days 2, 3, 5 and 7, different doses", "value": "similar"}, {"measurement": "decreased viability by trypan blue exclusion", "setting": "PBMCs; highest dose", "value": "10-15%"}]}
{"molecule": "CC(=O)N[C@@H](Cc1ccccc1)C(=O)N[C@@H](C)C(=O)N[C@H](C(=O)N[C@@H](Cc1ccccc1)C(=O)N[C@@H](CC(=O)O)C(=O)N[C@@H](CCC(=O)O)C(=O)N[C@@H](CC(N)=O)C(=O)N[C@@H](CCCCN)C(=O)N[C@@H](CO)C(=O)N[C@@H](Cc1c[nH]c2ccccc12)C(=O)N[C@@H](Cc1ccc(O)cc1)C(=O)N[C@@H](CC(C)C)C(=O)N[C@@H](CCC(=O)O)C(=O)N[C@@H](CC(=O)O)C(=O)N[C@@H](CC(N)=O)C(N)=O)C(C)C", "note": "[SEQ ID NO: 4]", "values": [{"measurement": "breadth of binding to HLA DRB1 alleles", "setting": "[1]; listed as FV548", "value": "somewhat more restricted in the breadth of binding; also recorded: more limited binding to HLA DR"}, {"measurement": "inhibition of the CD4+ T memory response / T effector proliferation in the TTBSA", "setting": "[2]", "value": "did not inhibit"}, {"measurement": "HLA binding profile", "setting": "[3]", "value": "highly-restricted HLA binding profiles"}]}
{"molecule": "CC[C@H](C)[C@H](NC(=O)[C@H](CC(N)=O)NC(=O)[C@H](CO)NC(=O)[C@H](CCC(=O)O)NC(C)=O)C(=O)N[C@@H](CCSC)C(=O)N[C@@H](CO)C(=O)N[C@H](C(=O)N[C@H](C(=O)N[C@@H](CC(N)=O)C(=O)NCC(=O)N[C@@H](Cc1ccc(O)cc1)C(=O)N[C@H](C(=O)N1CCC[C@H]1C(=O)N[C@@H](CCC(=O)O)C(=O)N[C@@H](CO)C(N)=O)C(C)C)[C@@H](C)CC)[C@@H](C)O", "note": "[SEQ ID NO: 5]", "values": [{"measurement": "breadth of binding to HLA DRB1 alleles", "setting": "[1]; listed as FV582", "value": "somewhat more restricted in the breadth of binding; also recorded: more limited binding to HLA DR"}, {"measurement": "inhibition of the CD4+ T memory response / T effector proliferation in the TTBSA", "setting": "[2]", "value": "did not inhibit"}]}
{"molecule": "CC[C@H](C)[C@H](NC(=O)[C@H](CC(C)C)NC(=O)[C@H](CC(C)C)NC(=O)[C@@H]1CCCN1C(=O)CNC(=O)[C@@H](NC(=O)[C@H](CC(C)C)NC(=O)CNC(=O)[C@H](CO)NC(=O)[C@H](Cc1c[nH]cn1)NC(=O)[C@@H](NC(=O)[C@H](CC(=O)O)NC(=O)[C@H](CCCCN)NC(=O)[C@H](CCC(=O)O)NC(C)=O)[C@@H](C)CC)[C@@H](C)CC)C(N)=O", "note": "[SEQ ID NO: 6]", "values": [{"measurement": "breadth of binding to HLA DRB1 alleles", "setting": "[1]; listed as FV1737", "value": "somewhat more restricted in the breadth of binding; also recorded: more limited binding to HLA DR"}, {"measurement": "inhibition of the CD4+ T memory response / T effector proliferation in the TTBSA", "setting": "[2]", "value": "did not inhibit"}, {"measurement": "HLA binding profile", "setting": "[3]", "value": "highly-restricted HLA binding profiles"}]}
{"molecule": "CC[C@H](C)[C@H](NC(=O)[C@H](C)NC(=O)[C@H](Cc1c[nH]cn1)NC(=O)[C@H](Cc1ccccc1)NC(=O)[C@H](CCC(=O)O)NC(=O)[C@H](Cc1c[nH]cn1)NC(=O)[C@H](CO)NC(C)=O)C(=O)N[C@@H](CC(N)=O)C(=O)NCC(=O)N[C@@H](CCSC)C(=O)N[C@H](C(=O)N[C@@H](Cc1ccc(O)cc1)C(=O)N[C@@H](CO)C(=O)N[C@@H](CC(C)C)C(=O)N1CCC[C@H]1C(N)=O)[C@@H](C)CC", "note": "[SEQ ID NO: 7]", "values": [{"measurement": "breadth of binding to HLA DRB1 alleles", "setting": "[1]", "value": "bind to multiple HLA DRB1 alleles"}, {"measurement": "inhibition of the CD4+ T memory response / T effector proliferation in the TTBSA", "setting": "[2]", "value": "did not inhibit"}]}
{"molecule": "G628H: FV621 with point mutation at TCR facing position G628H (glycine changed to histidine) (ILTIHFTHHSFIYGK)", "values": [{"measurement": "binding affinity to HLA DR alleles (in words)", "setting": "[1]; across the alleles tested", "value": "identical to FV621"}, {"measurement": "suppressive capacity on TT-induced memory CD4 T cell proliferation relative to FV621", "setting": "[2]; point-mutated FV621 peptides, data not shown", "value": "significantly diminished suppressive capacity"}]}
{"molecule": "IHSIHFSGHVFTVRK (listed as Homo sapiens) [SEQ ID NO: 2]", "values": [{"measurement": "proliferation of CD4+ T cells and activated T effector T cells", "setting": "[4]; 5, 10, 15, and 20 ug/ml, two donors", "value": "suppressed proliferation of CD4+ T cells and activated T effector T cells in a dose dependent manner"}, {"measurement": "CD4+ T cell activation reduced by", "setting": "[4]; Donor 096, with TT", "value": 70, "unit": "%"}, {"measurement": "CD4+ T cell activation reduced by", "setting": "[4]; Donor 120, with TT", "value": 50, "unit": "%"}]}
